Where “and” joins values, the source holds several entries; their conditions need not be identical. Identical values can stand only once.
Tests used:
mouse lung = assay: Intra-tracheal transfection of mouse lung, luciferase assay; assay type: in vivo; details: 3.6 mM zinc chloride
Protocol: Male BALB/c mice (specific pathogen free, Charles River Laboratories; 20-21 g) were used in the transfection experiments. Anesthesia was provided for all invasive procedures; animals were terminated by intraperitoneal administration of pentobarbital according to standard protocols. Neck dissections were performed on anesthetized mice using a one centimeter incision through the skin of the anterior neck. […] For comparison, a free nucleic acid solution (150 μl containing 512 μg of DNA) was prepared in sterile water and delivered in a similar manner. After injection, the point of incision was repaired using staples. The mice were terminated within 48 hours after treatment. […] An experiment was conducted to determine if transition metals promote in vivo transfection of the mouse lung. […] The final zinc chloride concentration of this mixture was 3.6 mM. […] For comparison, 150 μl of a DNA solution (354 μg DNA) was also administered to intratracheally to the lungs of four mice. At 48 hours post administration, the tracheal/lung block was dissected and assayed for luciferase specific activity as described above.

NIH 3T3 cells = assay: Cationic liposome-mediated transfection of cultured cells, luciferase assay; assay type: cell-based, murine; details: for Luciferase activity, Average / Luciferase activity, Trial 1 to Trial 4: 48 hours; for Luciferase activity, Trial 1 to Trial 4: individual trials
Protocol: In one embodiment, an appropriate mass of cationic lipid and the neutral lipid dioleoylphosphatidylethanolamine (DOPE) was added as solutions in chloroform to 1.9 mL sample vials to yield the desired molar ratio of cationic lipid:DOPE. The chloroform was removed via rotary evaporation at 37° C. The resulting thin lipid films were placed under vacuum overnight to insure that all traces of solvent have been removed. The lipid mixture was resuspended in 1 mL sterile water at 25° C. until the film is hydrated, and then vortex mixed to afford an emulsion. For the in vitro experiments, these emulsions were formulated as a cationic lipid concentration of 1 mM. For the in vivo experiments, the emulsions were formulated at a cationic lipid concentration of 3 mM.
NIH 3T3 cells were obtained from ATCC (CRL 1658), cultured in Dulbecco's Modified Eagle's Medium with ten percent calf serum, and plated on standard 24 well tissue culture plates 24 hours prior to transfection. Cells were approximately eighty percent confluent at the time of transfection.
NIH 3T3 cells were plated onto 24 well tissue culture plates as described in section 6.1.10. The growth media was removed via aspiration and the cells were washed once with 0.5 mL PBS/well. The liposome/transition metal/nucleic acid solutions were formed through sequential addition of appropriate amounts of DMEM (without serum), the liposome solution (1:1 N,N-[Bis(2-hydroxyethyl)]-N-methyl-N-[2,3-bis(tetradecanoyloxy)propyl] ammonium chloride (DMDHP):DOPE, zinc chloride, and the plasmid DNA pCMV.FOX.Luc.2. The amount of liposome solution used depended on the desired cationic lipid to DNA phosphate ratio. The addition of these substances was followed by thorough vortex mixing and incubation for 15 minutes at room temperature. A 200 microliter aliquot of the resultant transfection complex was added to each well (1 microgram DNA/well, n=4) and the cells were incubated for 4 hours, at 37° C. At this time, 500 microliters of DMEM+10% calf serum/well was added and the cells cultured for approximately 48 hours prior to lysis and analysis. The sample transfections were subsequently repeated a minimum of three times prior to lysis and analysis.
The presently claimed invention describes a new method using a combination of cationic lipid, transition metal enhancer and a nucleic acid of interest for gene delivery. The present invention provides a method that may enhance gene expression by improving the efficiency of gene delivery. This change in gene expression can be quantitated using various assays, such as the luciferase assay. de Wet et al., Molec. Cell Biol. 7:725, 1987. In in vitro experiments described herein in which a cationic lipid/transition metal enhancer/nucleic acid complex was used, the cells were lysed, using a lysis buffer, 48 hours post administration of the pCMV.FOX.Luc-2 containing solution. The lysis buffer contained 100 mM K2PO4 pH 7.0, 1 mM dithiothreitol, and 1% Triton X-100. A 25 μl aliquot of the lysate was analyzed for luciferase activity (de Wet et al., Molec. Cell Biol. 7:725, 1987) using a Monolight 2010 luminometer (Analytical Luminescence Laboratories). Accordingly, luciferase light emissions from each aliquot of the lysis homogenate were measured over a ten second period. Activity was expressed as relative light units, values collectively representing the assay conditions, luciferase concentration, luminometer photomultiplier tube sensitivity and background. Using well known techniques, the luciferase light units may be converted, for example, to picograms of luciferase protein. See, e.g., Felgner et al., U.S. Pat. No. 5,580,899 at Example 13.
To perform this study, cationic lipid/nucleic acid/zinc mixtures were prepared by mixing appropriate amounts of serum-free DMEM, cationic liposomes, zinc chloride and pCMV.FOX.Luc.2 plasmid DNA in a polystyrene tube. […]

[1] = charge ratio 0.5, ZnCl2 1000 μM
[2] = charge ratio 0.75, ZnCl2 0.1 μM
[3] = charge ratio 0.75, ZnCl2 100 μM
[4] = charge ratio 0.75, ZnCl2 1000 μM

Question: For `[Cl-].[Cl-].[Zn+2]` [ZnCl2, zinc chloride], which “Improvement of transfection activity relative to the "free" DNA solution” value (mouse lung) is on record?
Answer: The value was 5 fold.

Question: What about the “Luciferase activity, Average” value (NIH 3T3 cells; charge ratio 0.5, ZnCl2 0.1 μM) of the same compound?
Answer: The value was 357320 relative light units.

Question: What about the “Luciferase activity, Average” value (NIH 3T3 cells; charge ratio 0.5, ZnCl2 1 μM) of the same compound?
Answer: Its value is 289649.8 relative light units.

Question: What about the “Luciferase activity, Average” value (NIH 3T3 cells; charge ratio 0.5, ZnCl2 10 μM) of the same compound?
Answer: The value was 296498.3 relative light units.

Question: And the “Luciferase activity, Average” value (NIH 3T3 cells; charge ratio 0.5, ZnCl2 100 μM)?
Answer: The value was 690512.3 relative light units.

Question: What about the “Luciferase activity, Average” value (NIH 3T3 cells; [1]) of the same compound?
Answer: The value was 44053.75 relative light units.

Question: And the “Luciferase activity, Average” value (NIH 3T3 cells; [2])?
Answer: The value was 528118.8 relative light units.

Question: And the “Luciferase activity, Average” value (NIH 3T3 cells; charge ratio 0.75, ZnCl2 1 μM)?
Answer: The value was 141950 relative light units.

Question: What about the “Luciferase activity, Average” value (NIH 3T3 cells; charge ratio 0.75, ZnCl2 10 μM) of the same compound?
Answer: Its value is 397689.3 relative light units.

Question: What about the “Luciferase activity, Average” value (NIH 3T3 cells; [3]) of the same compound?
Answer: The value was 334007.5 relative light units.

Question: And the “Luciferase activity, Average” value (NIH 3T3 cells; [4])?
Answer: The value was 298625.5 relative light units.

Question: And the “Luciferase activity, Average” value (NIH 3T3 cells; charge ratio 1, ZnCl2 0.1 μM)?
Answer: Its value is 931446.8 relative light units.

Question: And the “Luciferase activity, Average” value (NIH 3T3 cells; charge ratio 1, ZnCl2 1 μM)?
Answer: Its value is 835699.8 relative light units.

Question: What about the “Luciferase activity, Average” value (NIH 3T3 cells; charge ratio 1, ZnCl2 10 μM) of the same compound?
Answer: Its value is 1366067 relative light units.

Question: And the “Luciferase activity, Average” value (NIH 3T3 cells; charge ratio 1, ZnCl2 100 μM)?
Answer: Its value is 359188.5 relative light units.

Question: What about the “Luciferase activity, Average” value (NIH 3T3 cells; charge ratio 1, ZnCl2 1000 μM) of the same compound?
Answer: The value was 414392 relative light units.

Question: And the “Luciferase activity, Average” value (NIH 3T3 cells; charge ratio 2, ZnCl2 0.1 μM)?
Answer: Its value is 677663.5 relative light units.

Question: What about the “Luciferase activity, Average” value (NIH 3T3 cells; charge ratio 2, ZnCl2 1 μM) of the same compound?
Answer: Its value is 747069.5 relative light units.

Question: And the “Luciferase activity, Average” value (NIH 3T3 cells; charge ratio 2, ZnCl2 10 μM)?
Answer: Its value is 1215879 relative light units.

Question: And the “Luciferase activity, Average” value (NIH 3T3 cells; charge ratio 2, ZnCl2 100 μM)?
Answer: Its value is 827479.8 relative light units.

Question: And the “Luciferase activity, Average” value (NIH 3T3 cells; charge ratio 2, ZnCl2 1000 μM)?
Answer: The value was 109543.8 relative light units.

Question: What about the “enhancement of in vitro transfection by added zinc” value (NIH 3T3 cells; depending on the cationic lipid to nucleic acid charge ratio) of the same compound?
Answer: Its value is “two to forty”.

Question: What about the “Luciferase activity, Trial 1 to Trial 4” value (NIH 3T3 cells; charge ratio 0.5, ZnCl2 0.1 μM) of the same compound?
Answer: Its value is 487868 relative light units and 426369 relative light units and 256897 relative light units and 258146 relative light units.

Question: And the “Luciferase activity, Trial 1 to Trial 4” value (NIH 3T3 cells; charge ratio 0.5, ZnCl2 1 μM)?
Answer: Its value is 385049 relative light units and 200471 relative light units and 304108 relative light units and 268971 relative light units.

Question: And the “Luciferase activity, Trial 1 to Trial 4” value (NIH 3T3 cells; charge ratio 0.5, ZnCl2 10 μM)?
Answer: The value was 325001 relative light units and 323001 relative light units and 250110 relative light units and 287881 relative light units.

Question: And the “Luciferase activity, Trial 1 to Trial 4” value (NIH 3T3 cells; charge ratio 0.5, ZnCl2 100 μM)?
Answer: The value was 351939 relative light units and 252969 relative light units and 294018 relative light units and 1863123 relative light units.

Question: What about the “Luciferase activity, Trial 1 to Trial 4” value (NIH 3T3 cells; [1]) of the same compound?
Answer: Its value is 43835 relative light units and 40236 relative light units and 59395 relative light units and 32749 relative light units.

Question: What about the “Luciferase activity, Trial 1 to Trial 4” value (NIH 3T3 cells; [2]) of the same compound?
Answer: Its value is 613179 relative light units and 556656 relative light units and 437658 relative light units and 504982 relative light units.

Question: And the “Luciferase activity, Trial 1 to Trial 4” value (NIH 3T3 cells; charge ratio 0.75, ZnCl2 1 μM)?
Answer: The value was 127339 relative light units and 236302 relative light units and 123913 relative light units and 80246 relative light units.

Question: What about the “Luciferase activity, Trial 1 to Trial 4” value (NIH 3T3 cells; charge ratio 0.75, ZnCl2 10 μM) of the same compound?
Answer: Its value is 455299 relative light units and 465986 relative light units and 362168 relative light units and 307304 relative light units.

Question: And the “Luciferase activity, Trial 1 to Trial 4” value (NIH 3T3 cells; [3])?
Answer: Its value is 404983 relative light units and 351094 relative light units and 358591 relative light units and 221362 relative light units.

Question: What about the “Luciferase activity, Trial 1 to Trial 4” value (NIH 3T3 cells; [4]) of the same compound?
Answer: Its value is 335343 relative light units and 257292 relative light units and 374511 relative light units and 227356 relative light units.

Question: What about the “Luciferase activity, Trial 1 to Trial 4” value (NIH 3T3 cells; charge ratio 1, ZnCl2 0.1 μM) of the same compound?
Answer: The value was 901184 relative light units and 862221 relative light units and 1113520 relative light units and 848862 relative light units.

Question: And the “Luciferase activity, Trial 1 to Trial 4” value (NIH 3T3 cells; charge ratio 1, ZnCl2 1 μM)?
Answer: The value was 942667 relative light units and 864670 relative light units and 799992 relative light units and 735470 relative light units.

Question: And the “Luciferase activity, Trial 1 to Trial 4” value (NIH 3T3 cells; charge ratio 1, ZnCl2 10 μM)?
Answer: Its value is 2145687 relative light units and 1433861 relative light units and 1202748 relative light units and 681970 relative light units.

Question: And the “Luciferase activity, Trial 1 to Trial 4” value (NIH 3T3 cells; charge ratio 1, ZnCl2 100 μM)?
Answer: The value was 262768 relative light units and 379927 relative light units and 447492 relative light units and 346567 relative light units.

Question: What about the “Luciferase activity, Trial 1 to Trial 4” value (NIH 3T3 cells; charge ratio 1, ZnCl2 1000 μM) of the same compound?
Answer: The value was 437998 relative light units and 443459 relative light units and 502263 relative light units and 273848 relative light units.

Question: And the “Luciferase activity, Trial 1 to Trial 4” value (NIH 3T3 cells; charge ratio 2, ZnCl2 0.1 μM)?
Answer: Its value is 596911 relative light units and 685311 relative light units and 818392 relative light units and 610040 relative light units.

Question: What about the “Luciferase activity, Trial 1 to Trial 4” value (NIH 3T3 cells; charge ratio 2, ZnCl2 1 μM) of the same compound?
Answer: Its value is 661803 relative light units and 814409 relative light units and 754168 relative light units and 757898 relative light units.

Question: What about the “Luciferase activity, Trial 1 to Trial 4” value (NIH 3T3 cells; charge ratio 2, ZnCl2 10 μM) of the same compound?
Answer: Its value is 1498720 relative light units and 1238992 relative light units and 1207690 relative light units and 918114 relative light units.

Question: What about the “Luciferase activity, Trial 1 to Trial 4” value (NIH 3T3 cells; charge ratio 2, ZnCl2 100 μM) of the same compound?
Answer: The value was 768327 relative light units and 880621 relative light units and 941720 relative light units and 719251 relative light units.

Question: And the “Luciferase activity, Trial 1 to Trial 4” value (NIH 3T3 cells; charge ratio 2, ZnCl2 1000 μM)?
Answer: Its value is 199493 relative light units and 48657 relative light units and 189902 relative light units and 123 relative light units.

— patent US6624149B2, “Method for nucleic acid transfection of cells” (Genteric, Inc., priority 2000, dated 2003)
